Assays:
[1] = system: excised wheat leaf tips (Triticum aestivum cv. Hereward); assay: Senescence inhibition on winter wheat leaf segments (retention of chlorophyll); type: in vivo; conditions: 10^−4 mol/L; 96 hours in the dark; activity of kinetin set at 100%
Procedure: Seeds of winter wheat, Triticum aestivum cv. Hereward, were washed under running water for 24 hours and then sown on vermiculite soaked with Knop's solution. They were placed in the grown chamber at 25° C. with a 16/8 hours light period at […]. After 7 days, the first leaf was fully developed and the second leaf had started to grow. A tip section of the first leaf, approximately 35 mm long, was removed from 5 seedlings and trimmed slightly to a combined weight of 100 mg. The basal ends of the five leaf tips were placed in the wells of a microtiter polystyrene plate containing […] of a cytokinin solution each. The entire plate was inserted into a plastic box lined with paper tissues soaked in distilled water to prevent leaf sections from drying out. After 96 hours incubation in the dark at 25° C., the leaves were removed and chlorophyll extracted by heating at 80 C for 10 min in 5 ml of 80% ethanol (v/v). The sample volume was then restored to 5 ml by the addition of 80% ethanol (v/v). The absorbance of the extract was recorded at 665 nm. In addition, chlorophyll extracts from fresh leaves and leaf tips incubated in deionized water were measured. From the obtained data, the concentration with highest activity was selected for each compound tested. Relative activity of the compound at this concentration was calculated (see Table 6 below). The activity obtained for 10^−4 M kinetin (Kin) was set as 100%. The values shown are means of five replicates and the whole experiment was repeated twice.
The compounds to be tested were dissolved in dimethylsulfoxide (DMSO) and the solution brought up to 10^−3 M with distilled water. […] As summarized in Table 6 below, the presence of C-8 substitutent was beneficial and led to increase of antisenescent properties.

[2] = system: human diploid fibroblasts (HDF cells; HDF25, HDF45, HDF80); assay: Inhibition of human cell aging: senescent cells by beta-galactosidase staining; type: cell-based; conditions: for SENESCENT CELLS (%) HDF25: human diploid fibroblasts passage 25, beta-galactosidase staining; for SENESCENT CELLS (%) HDF45: human diploid fibroblasts passage 45, beta-galactosidase staining; for SENESCENT CELLS (%) HDF80: human diploid fibroblasts passage 80, beta-galactosidase staining
Procedure: In this example, human diploid fibroblasts (HDF cells of various passage levels: passage 25—designated HDF25; passage 45—designated HDF45; passage 80—designated HDF80) were stained for beta-galactosidase activity. The medium used for the cell cultivation was removed the cells were washed twice in […], and fixed in 2-3 ml of fixing solution comprised of a 2% formaldehyde and 0.2% glutaraldehyde in PBS. The cells were incubated at room temperature for 5 minutes, and then washed twice with PBS. The cells were subsequently incubated at 37° C. […] In this experiment, senescent cells, but no other cells were stained blue due to the action of beta-galactosidase on the substrate.

[3] = system: Salmonella typhimurium histidien auxotrophs TA98 and TA100; assay: Ames test; type: cell-based; conditions: 2.5 to 5000 μg/plate; presence and absence of Aroclor-induced rat liver S9
Procedure: A number of tests related to the safety of have been carried out using conventionally accepted protocols and procedures. The results of these studies are summarized herein. Tests were carried out using DMSO as solvent and dose levels of compound 21, 24, 26, 27, 39, 41, 45, 48, 50, 52, 53, 54, 55, 56, 63, 64, 66, 67, 68, 69, 70, 71, 72, 74, 76, 124, 125, 126, 127, 128, 129, 130, 145, 146, 147, 149, 150, 151, 208, 216, 218 a 243 at 2.5, 5.0, 15, 50, 500, 1500, and 5000 μg/plate based upon standard protocol and procedures (Ames et al., Mutation Research, 31, 347-364 (1975); Maron et al., Mutation Research, 113, 173-215 (1983)).

[4] = system: cytokinin-dependent tobacco callus Nicotiana tabacum L. cv. Wisconsin 38; assay: Plant cell division: growth of cytokinin-dependent tobacco callus; type: cell-based; conditions: for Activity (%); (s.d.): relative activity at concentration with highest activity, 10^−6 M kinetin set at 100%; for Concentration with highest activity (mol/l): tobacco callus fresh weight increase after four weeks, tested 10^−8 M to 10^−4 M
Procedure: Cytokinin-dependent tobacco callus Nicotiana tabacum L. cv. Wisconsin 38 was maintained at 25° C. in darkness on modified MS medium, containing 4 μmol/l nicotinic acid, 2.4 μmol/l pyridoxine hydrochloride, 1.2 μmol/l thiamine, 26.6 μmol/l glycine, 1.37 μmol/l glutamine, 1.8 μmol/l myo-inositol, 30 g/l of sucrose, 8 g/l of agar, 5.37 μmol/l NAA and 0.5 μmol/l BAP. Subcultivation was carried out every three weeks. Fourteen days before the bioassay, the callus tissue was transferred to the media without BAP. Biological activity was determined from the increase in fresh callus weight after four weeks of cultivation. Five replicates were prepared for each cytokinin concentration and the entire test was repeated twice. From the obtained data, the concentration with highest activity was selected for each compound tested. Relative activity at this concentration was calculated (see Table 17 below). The activity obtained for 10^−6 M kinetin (Kin) was set as 100%.
The cytokinins to be tested were dissolved in dimethylsulfoxide (DMSO) and the solution brought up to 10^−3M with distilled water.

Row | Structure (SMILES) | Activity (%) (s.d.), retention of chlorophyll [1] | SENESCENT CELLS (%) HDF25 [2] | SENESCENT CELLS (%) HDF45 [2] | SENESCENT CELLS (%) HDF80 [2] | mutagenic response [3] | Activity (%); (s.d.) [4] | Concentration with highest activity (mol/l) [4]
1 | Fc1ccc(CNc2ncnc3c2nc(Cl)n3C2CCCCO2)cc1F (stereo not drawn) [Compound 11] | 127 (±5) % | – | – | – | – | – | –
2 | COc1ccc(CNc2ncnc3c2nc(Cl)n3C2CCCCO2)cc1OC (stereo not drawn) [Compound 12] | 140 (±7) % | – | – | – | – | – | –
3 | COc1ccc(CNc2ncnc3c2nc(Br)n3C2CCCCO2)cc1OC (stereo not drawn) [Compound 41] | 133 (±7) % | 2% | 6% | 21% | no positive mutagenic responses | – | –
4 | Ic1nc2c(NCc3ccco3)ncnc2n1C1CCCCO1 (stereo not drawn) [Compound 45, 8-Iodo-6-furfurylamino-9-(tetrahydropyran-2-yl)-9H-purine] | 112 (±4) % | 3% | 5% | 20% | no positive mutagenic responses | – | –
5 | C/C(=C\CNc1ncnc2c1nc(I)n2C1CCCCO1)CO (stereo not drawn) [Compound 48] | 120 (±4) % | 2% | 4% | 21% | no positive mutagenic responses | – | –
6 | Fc1cccc(CNc2ncnc3c2nc(I)n3C2CCCCO2)c1 (stereo not drawn) [Compound 50] | 121 (±4) % | 3% | 4% | 19% | no positive mutagenic responses | – | –
7 | COc1cccc(CNc2ncnc3c2nc(I)n3C2CCCCO2)c1 (stereo not drawn) [Compound 52] | 120 (±3) % | 2% | 6% | 21% | no positive mutagenic responses | – | –
8 | Oc1cccc(CNc2ncnc3c2nc(I)n3C2CCCCO2)c1 (stereo not drawn) [Compound 53] | 125 (±6) % | 2% | 5% | 21% | no positive mutagenic responses | – | –
9 | Oc1ccc(CNc2ncnc3c2nc(I)n3C2CCCCO2)cc1O (stereo not drawn) [Compound 54] | 138 (±7) % | 3% | 5% | 20% | no positive mutagenic responses | – | –
10 | Fc1ccc(CNc2ncnc3c2nc(I)n3C2CCCCO2)cc1F (stereo not drawn) [Compound 55] | 133 (±5) % | 3% | 4% | 18% | no positive mutagenic responses | – | –
11 | COc1ccc(CNc2ncnc3c2nc(I)n3C2CCCCO2)cc1OC (stereo not drawn) [Compound 56] | 141 (±8) % | 3% | 5% | 21% | no positive mutagenic responses | – | –
12 | Clc1nc2c(NCc3ccco3)ncnc2n1C1CCCO1 (stereo not drawn) [Compound 63] | 110 (±2) % | 2% | 4% | 19% | no positive mutagenic responses | – | –
13 | Oc1ccc(CNc2ncnc3c2nc(Cl)n3C2CCCO2)cc1O (stereo not drawn) [Compound 66] | 132 (±5) % | 2% | 4% | 16% | no positive mutagenic responses | – | –
14 | Fc1ccc(CNc2ncnc3c2nc(Cl)n3C2CCCO2)cc1F (stereo not drawn) [Compound 67] | 128 (±6) % | 4% | 6% | 18% | no positive mutagenic responses | – | –
15 | Oc1cccc(CNc2ncnc3c2nc(Cl)n3C2CCCO2)c1 (stereo not drawn) [Compound 70] | 126 (±1) % | 2% | 5% | 18% | no positive mutagenic responses | 110 (±1) % | 10^−6-10^−4 mol/l
16 | Fc1cccc(CNc2ncnc3c2nc(Cl)n3C2CCCO2)c1 (stereo not drawn) [Compound 71] | 119 (±3) % | 3% | 6% | 19% | no positive mutagenic responses | 116 (±2) % | 10^−6-10^−4 mol/l
17 | Brc1nc2c(NCc3ccco3)ncnc2n1C1CCCO1 (stereo not drawn) [Compound 72] | 106 (±2) % | 3% | 4% | 17% | no positive mutagenic responses | – | –
18 | C/C(=C/CNc1ncnc2c1nc(Br)n2C1CCCO1)CO (stereo not drawn) [Compound 74] | 127 (±5) % | 3% | 5% | 21% | no positive mutagenic responses | 122 (±4) % | 10^−6-10^−4 mol/l
19 | CC(C)=CCNc1ncnc2c1nc(Br)n2C1CCCO1 (stereo not drawn) [Compound 75] | – | – | – | – | – | 119 (±4) % | 10^−6-10^−4 mol/l
20 | Oc1cccc(CNc2ncnc3c2nc(I)n3C2CCCO2)c1 (stereo not drawn) [Compound 76] | 112 (±3) % | 3% | 4% | 15% | no positive mutagenic responses | 114 (±3) % | 10^−6-10^−4 mol/l
21 | OCCNc1nc2c(NCc3ccco3)ncnc2n1C1CCCCO1 (stereo not drawn) [Compound 243, 6-furfurylamino-8-(2-hydroxyethylamino)-9-(tetrahydropyran-2-yl)-9H-purine] | – | – | – | – | no positive mutagenic responses | – | –
22 | c1coc(CNc2ncnc3[nH]cnc23)c1 [kinetin, reference compound] | 100% | 3% | 5% | 38% | – | – | –
